These results are taken from patent publication US20180008587A1, “THIOHYDANTOIN ANDROGEN RECEPTOR ANTAGONISTS FOR THE TREATMENT OF CANCER” (Jaressen Pharmaceutica NV, priority 2016, published 2018).

Assay [1] concerns the target T1, AR H874Y (Homo sapiens, UniProt P10275, H875Y).
T1 construct: expressed in transfected cells; host or cells: HepG2
T1 sequence (P10275 1-920 H875Y): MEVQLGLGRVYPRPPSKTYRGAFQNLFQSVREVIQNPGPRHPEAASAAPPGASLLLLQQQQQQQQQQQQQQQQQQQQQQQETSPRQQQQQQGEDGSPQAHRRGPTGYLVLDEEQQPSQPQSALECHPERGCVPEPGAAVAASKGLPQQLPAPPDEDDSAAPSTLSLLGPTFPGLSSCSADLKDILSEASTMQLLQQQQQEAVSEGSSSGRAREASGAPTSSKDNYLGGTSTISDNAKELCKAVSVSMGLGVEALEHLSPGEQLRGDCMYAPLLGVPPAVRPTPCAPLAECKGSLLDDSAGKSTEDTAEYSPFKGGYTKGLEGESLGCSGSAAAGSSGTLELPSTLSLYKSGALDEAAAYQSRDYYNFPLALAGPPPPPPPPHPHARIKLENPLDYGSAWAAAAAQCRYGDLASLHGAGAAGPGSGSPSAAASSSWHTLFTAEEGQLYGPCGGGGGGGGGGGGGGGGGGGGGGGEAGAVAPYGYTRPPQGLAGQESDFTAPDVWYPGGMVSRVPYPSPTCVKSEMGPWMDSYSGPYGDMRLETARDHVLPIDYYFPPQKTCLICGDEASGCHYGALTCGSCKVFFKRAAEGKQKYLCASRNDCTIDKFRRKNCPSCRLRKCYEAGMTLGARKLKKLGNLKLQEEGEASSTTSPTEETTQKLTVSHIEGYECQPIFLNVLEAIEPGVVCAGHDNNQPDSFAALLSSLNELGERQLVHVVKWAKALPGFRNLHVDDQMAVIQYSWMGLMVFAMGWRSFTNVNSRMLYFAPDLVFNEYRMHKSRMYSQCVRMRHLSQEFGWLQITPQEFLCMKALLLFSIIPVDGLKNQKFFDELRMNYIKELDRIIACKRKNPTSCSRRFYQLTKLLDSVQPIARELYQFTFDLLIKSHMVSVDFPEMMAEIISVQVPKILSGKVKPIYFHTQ
The assay is described as follows: Luciferase transcriptional reporter assay, mutant AR, HepG2, antagonist mode. The class given is cell-based. The following applies: HepG2, 90 pM R1881, 48 hours; * denotes incomplete inhibition (otherwise 100%); read-out: Antagonism; IC50, AR construct H874Y. The protocol: (§1) HepG2 cells were maintained in EMEM supplemented with 10% FBS. One day before transfection, the media was changed to EMEM with 10% CSS. T-150 flasks were transiently transfected using 120 μL Lipofectamine 2000 (Life Technologies), 30 μg mutant cDNA (expression vector)—mutant cDNA tested were L701H, T877A, W741C and H874Y—and 40 μg 4×ARE-Luciferase (reporter vector) in OptiMEM and the flasks were incubated overnight. Cells were then trypsinized, counted and resuspended at 500,000 cells/mL. For agonist mode, the compounds of Formula (I) are serially diluted and 50 μL of the compound added per well. 50 μL of the cells are added to each well and incubated for 48 hours. For antagonist mode, a final concentration of 90 pM R1881 was added to the diluted compounds and incubated for 48 hours. The plates were then assayed using SteadyGlo and read on the Envision. Percent Stimulation and Inhibition is determined and analyzed using GraphPad Prism.
(§2) All values are calculated relative to the activity of R1881 induced androgen receptor activity (n≧3).

Assay [2] has as its target T2, AR L701H (Homo sapiens, UniProt P10275, L702H).
T2 construct: expressed in transfected cells; host or cells: HepG2
T2 sequence (P10275 1-920 L702H): T1 sequence (P10275 1-920 H875Y) with L702H, Y875H
The assay is described as above. The class given is cell-based. The following applies: HepG2, 90 pM R1881, 48 hours; * denotes incomplete inhibition (otherwise 100%); read-out: Antagonism; IC50, AR construct L701H. The protocol: as §1, §2

Molecules are shown by their SMILES. Changes are numbered by the printed parent chain.

With `N#Cc1ncc(N2C(=O)C3(CCC3)N(c3ccc(OC4CCNCC4)cc3)C2=S)cc1C(F)(F)F` [Cpd 35, 5-[5-oxo-8-[4-(4-piperidyloxy)phenyl]-7-thioxo-6,8-diazaspiro[3.4]octan-6-yl]-3-(trifluoromethyl)pyridine-2-carbonitrile], the results for the IC50 in assay [1] and in assay [2] were 1.95 µM and 3.36 µM, respectively.
